Reference: PMC7853427 (Journal of the American Chemical Society, 2021)

Target: E. coli PheRS (Escherichia coli, UniProt P08312)
Experiment: inhibition of Phe activation by purified PheRS
Format: biochemical

Chain of E. coli PheRS (P08312 whole entry): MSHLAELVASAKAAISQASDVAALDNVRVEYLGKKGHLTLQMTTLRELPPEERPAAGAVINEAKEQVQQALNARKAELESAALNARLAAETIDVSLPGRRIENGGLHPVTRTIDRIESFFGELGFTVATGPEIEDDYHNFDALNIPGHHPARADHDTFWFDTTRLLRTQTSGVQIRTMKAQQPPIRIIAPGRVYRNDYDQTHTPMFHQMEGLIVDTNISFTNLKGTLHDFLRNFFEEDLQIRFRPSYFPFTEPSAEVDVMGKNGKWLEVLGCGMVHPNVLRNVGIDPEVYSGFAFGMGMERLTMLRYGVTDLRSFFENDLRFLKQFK
Chain of E. coli PheRS (P07395 whole entry partner): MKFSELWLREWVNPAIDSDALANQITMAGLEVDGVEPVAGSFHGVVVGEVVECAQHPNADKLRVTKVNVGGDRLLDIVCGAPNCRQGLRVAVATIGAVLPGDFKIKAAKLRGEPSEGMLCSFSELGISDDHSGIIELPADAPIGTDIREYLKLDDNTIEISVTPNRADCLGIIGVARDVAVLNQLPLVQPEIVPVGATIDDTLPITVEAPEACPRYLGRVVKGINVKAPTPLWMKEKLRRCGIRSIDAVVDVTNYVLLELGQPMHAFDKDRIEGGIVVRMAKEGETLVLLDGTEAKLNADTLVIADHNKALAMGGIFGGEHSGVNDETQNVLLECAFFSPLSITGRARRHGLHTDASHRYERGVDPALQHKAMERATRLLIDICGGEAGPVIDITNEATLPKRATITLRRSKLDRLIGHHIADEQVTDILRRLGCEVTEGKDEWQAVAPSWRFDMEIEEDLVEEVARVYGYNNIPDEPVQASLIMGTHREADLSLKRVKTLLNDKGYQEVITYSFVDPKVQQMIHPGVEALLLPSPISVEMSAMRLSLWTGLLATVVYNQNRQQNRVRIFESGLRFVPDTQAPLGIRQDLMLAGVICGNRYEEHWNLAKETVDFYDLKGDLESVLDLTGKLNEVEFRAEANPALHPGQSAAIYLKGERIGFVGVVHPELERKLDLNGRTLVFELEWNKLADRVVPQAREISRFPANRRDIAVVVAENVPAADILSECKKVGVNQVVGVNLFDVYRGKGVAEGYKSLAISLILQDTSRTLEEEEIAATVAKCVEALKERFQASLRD

Work on `CC(Cc1ccccc1)NCc1ccccc1` (stereo not shown) [compound 20, norbenzamphetamine] yielded an IC50 of 169 µM.
